The numbers were not newly measured in patent EP1558263B1, “PROLONGED RELEASE PHARMACEUTICAL COMPOSITION” (Akzo Nobel N.V., priority 2002, dated 2004), which cites them from elsewhere.

Values after ≈ are worked out from the molar mass of the structure shown.

The subject of this data set is Mannheimia haemolytica. The following applies: pathogen of respiratory tract infections in cattle.

`CO/N=C(\C(=O)N[C@@H]1C(=O)N2C(C(=O)[O-])=C(C[n+]3cccc4c3CCCC4)CS[C@H]12)c1csc(N)n1` [Cefquinome, cefquinome]: the MIC90 (as a rule, the lowest concentration that inhibits either 90% of growth or 90% of the strains tested, depending on the study) is on record as 0.25 µg/mL (≈ 0.473 µM).
